ChEMBL document CHEMBL3286225, “Novel carboline derivatives as potent antifungal lead compounds: design, synthesis, and biological evaluation” (ACS Med Chem Lett, 2014)
≈ marks a conversion by molar mass, not a printed value.

Tests used:
Type in all cases: functional
Trichophyton rubrum = experiment: Antifungal activity against Trichophyton rubrum Cmccftla after 7 days by serial dilution method; conditions: 168 h
Nannizzia gypsea = experiment: Antifungal activity against Microsporum gypseum Cmccfmza after 7 days by serial dilution method; conditions: 168 h
Pichia kudriavzevii = experiment: Antifungal activity against Candida krusei 0710397 after 7 days by serial dilution method; conditions: Pichia kudriavzevii, 0710397, 168 h
Cryptococcus neoformans = experiment: Antifungal activity against Cryptococcus neoformans 32609 after 72 hrs by serial dilution method; conditions: Cryptococcus neoformans, 32609, 72 h
Candida albicans = experiment: Antifungal activity against fluconazole-sensitive Candida albicans SC5314 after 24 hrs by serial dilution method; conditions: SC5314, 24 h
Candida tropicalis = experiment: Antifungal activity against Candida tropicalis after 7 days by serial dilution method; conditions: 168 h
Candida parapsilosis = experiment: Antifungal activity against Candida parapsilosis ATCC 22019 after 24 hrs by serial dilution method; conditions: Lodderomyces parapsilosis, ATCC 22019, 24 h
Nakaseomyces glabratus = experiment: Antifungal activity against Candida glabrata 537 after 24 hrs by serial dilution method; conditions: Nakaseomyces glabratus, 537, 24 h
Aspergillus fumigatus = experiment: Antifungal activity against Aspergillus fumigatus 07544 after 7 days by serial dilution method; conditions: Aspergillus fumigatus, 07544, 168 h

Row | Structure (SMILES) | MIC80 (Trichophyton rubrum) | MIC80 (Nannizzia gypsea) | MIC80 (Pichia kudriavzevii) | MIC80 (Cryptococcus neoformans) | MIC80 (Candida albicans) | MIC80 (Candida tropicalis) | MIC80 (Candida parapsilosis) | MIC80 (Nakaseomyces glabratus) | MIC80 (Aspergillus fumigatus)
1 | CN1CCc2c(c3cc(Cl)ccc3n2CC(O)c2ccccc2)C1 (stereo not given) | > 64 µg/mL | 32 µg/mL (≈ 93.9 µM) |  | 32 µg/mL (≈ 93.9 µM) | > 64 µg/mL |  | 64 µg/mL (≈ 188 µM) | 32 µg/mL (≈ 93.9 µM) | > 64 µg/mL
2 | CN1CCc2c(c3cc(Cl)ccc3n2C(=O)c2ccccc2Br)C1 | > 64 µg/mL | > 64 µg/mL |  | > 64 µg/mL | > 64 µg/mL |  | 64 µg/mL (≈ 159 µM) | > 64 µg/mL | > 64 µg/mL
3 | Cc1ccc2c3c(n(CCCOc4ccc(Cl)cc4)c2c1)CCN(C)C3 | 8 µg/mL (≈ 21.7 µM) | 8 µg/mL (≈ 21.7 µM) |  | 8 µg/mL (≈ 21.7 µM) | 32 µg/mL (≈ 86.7 µM) |  | 16 µg/mL (≈ 43.4 µM) | 16 µg/mL (≈ 43.4 µM) | 16 µg/mL (≈ 43.4 µM)
4 | CN1CCc2c(c3cc(Cl)ccc3n2Cc2ccccc2)C1 | 16 µg/mL (≈ 51.5 µM) | 16 µg/mL (≈ 51.5 µM) |  | 32 µg/mL (≈ 103 µM) | 64 µg/mL (≈ 206 µM) |  | 64 µg/mL (≈ 206 µM) | 32 µg/mL (≈ 103 µM) | 64 µg/mL (≈ 206 µM)
5 | CN1CCc2c(c3cc(Cl)cc(Cl)c3n2CCCOc2ccc(Cl)cc2)C1 | > 64 µg/mL | 16 µg/mL (≈ 37.8 µM) |  | 16 µg/mL (≈ 37.8 µM) | > 64 µg/mL |  | > 64 µg/mL | > 64 µg/mL | > 64 µg/mL
6 | Clc1ccc2c(c1)c1c(n2CCCOc2cccc(Br)c2)CCNC1 | 16 µg/mL (≈ 38.1 µM) | 16 µg/mL (≈ 38.1 µM) | 4 µg/mL (≈ 9.53 µM) | 4 µg/mL (≈ 9.53 µM) | 8 µg/mL (≈ 19.1 µM) | 16 µg/mL (≈ 38.1 µM) | 16 µg/mL (≈ 38.1 µM) |  | 
7 | C#CCn1c2c(c3cc(Cl)ccc31)CN(C)CC2 | > 64 µg/mL | 32 µg/mL (≈ 124 µM) |  | 32 µg/mL (≈ 124 µM) | > 64 µg/mL |  | 64 µg/mL (≈ 247 µM) | 64 µg/mL (≈ 247 µM) | > 64 µg/mL
8 | CN1CCc2c(c3cc(Cl)ccc3n2Cc2ccc(Cl)cc2)C1 | 64 µg/mL (≈ 185 µM) | 16 µg/mL (≈ 46.3 µM) |  | 16 µg/mL (≈ 46.3 µM) | 64 µg/mL (≈ 185 µM) |  | 64 µg/mL (≈ 185 µM) | 16 µg/mL (≈ 46.3 µM) | 64 µg/mL (≈ 185 µM)
9 | Cc1ccc2c(c1)c1c(n2CCCOc2cccc(Br)c2)CCNC1 | 16 µg/mL (≈ 40.1 µM) | 16 µg/mL (≈ 40.1 µM) | 4 µg/mL (≈ 10 µM) | 16 µg/mL (≈ 40.1 µM) | 16 µg/mL (≈ 40.1 µM) | 16 µg/mL (≈ 40.1 µM) | 16 µg/mL (≈ 40.1 µM) |  | 
10 | CN1CCc2c(c3cc(C(F)(F)F)ccc3n2CCCOc2ccc(Cl)cc2)C1 | 64 µg/mL (≈ 151 µM) | 64 µg/mL (≈ 151 µM) |  | 64 µg/mL (≈ 151 µM) | > 64 µg/mL |  | > 64 µg/mL | 64 µg/mL (≈ 151 µM) | > 64 µg/mL

The remaining lines, values ahead:

Row | MIC80 (Trichophyton rubrum) | MIC80 (Nannizzia gypsea) | MIC80 (Pichia kudriavzevii) | MIC80 (Cryptococcus neoformans) | MIC80 (Candida albicans) | MIC80 (Candida tropicalis) | MIC80 (Candida parapsilosis) | MIC80 (Nakaseomyces glabratus) | MIC80 (Aspergillus fumigatus) | Structure (SMILES)
11 | 4 µg/mL (≈ 9.92 µM) | 2 µg/mL (≈ 4.96 µM) | 4 µg/mL (≈ 9.92 µM) | 4 µg/mL (≈ 9.92 µM) | 2 µg/mL (≈ 4.96 µM) | 16 µg/mL (≈ 39.7 µM) | 4 µg/mL (≈ 9.92 µM) |  |  | Fc1ccc2c(c1)c1c(n2CCCOc2cccc(Br)c2)CCNC1
12 | 32 µg/mL (≈ 88.8 µM) | 16 µg/mL (≈ 44.4 µM) | 4 µg/mL (≈ 11.1 µM) | 32 µg/mL (≈ 88.8 µM) | 32 µg/mL (≈ 88.8 µM) | 16 µg/mL (≈ 44.4 µM) | 4 µg/mL (≈ 11.1 µM) |  |  | Fc1ccc2c(c1)c1c(n2CCCOc2cccc(F)c2F)CCNC1
13 | 8 µg/mL (≈ 22.6 µM) | 4 µg/mL (≈ 11.3 µM) | 16 µg/mL (≈ 45.1 µM) | 8 µg/mL (≈ 22.6 µM) | 8 µg/mL (≈ 22.6 µM) | > 64 µg/mL | > 64 µg/mL |  |  | COc1ccc(OCCCn2c3c(c4cc(F)ccc42)CNCC3)cc1
14 | 16 µg/mL (≈ 44.9 µM) | 8 µg/mL (≈ 22.4 µM) | 4 µg/mL (≈ 11.2 µM) | 16 µg/mL (≈ 44.9 µM) | 16 µg/mL (≈ 44.9 µM) | 16 µg/mL (≈ 44.9 µM) | 16 µg/mL (≈ 44.9 µM) |  |  | Fc1ccc(OCCCCn2c3c(c4cc(F)ccc42)CNCC3)cc1
15 | 32 µg/mL (≈ 89.2 µM) | 16 µg/mL (≈ 44.6 µM) | 64 µg/mL (≈ 178 µM) | 16 µg/mL (≈ 44.6 µM) | 32 µg/mL (≈ 89.2 µM) | 64 µg/mL (≈ 178 µM) | 64 µg/mL (≈ 178 µM) |  |  | Fc1ccc2c(c1)c1c(n2CCCOc2ccccc2Cl)CCNC1
16 | 2 µg/mL (≈ 5.91 µM) | 4 µg/mL (≈ 11.8 µM) | 4 µg/mL (≈ 11.8 µM) | 4 µg/mL (≈ 11.8 µM) | 8 µg/mL (≈ 23.6 µM) | 16 µg/mL (≈ 47.3 µM) | 4 µg/mL (≈ 11.8 µM) |  |  | Cc1ccc(OCCCn2c3c(c4cc(F)ccc42)CNCC3)cc1
17 | 4 µg/mL (≈ 10.6 µM) | 4 µg/mL (≈ 10.6 µM) | 4 µg/mL (≈ 10.6 µM) | 4 µg/mL (≈ 10.6 µM) | 8 µg/mL (≈ 21.1 µM) | 16 µg/mL (≈ 42.3 µM) | 4 µg/mL (≈ 10.6 µM) |  |  | Fc1cc(F)c(OCCCn2c3c(c4cc(F)ccc42)CNCC3)c(F)c1
18 | 4 µg/mL (≈ 11.8 µM) | 4 µg/mL (≈ 11.8 µM) | 16 µg/mL (≈ 47.3 µM) | 8 µg/mL (≈ 23.6 µM) | 8 µg/mL (≈ 23.6 µM) | 16 µg/mL (≈ 47.3 µM) | 4 µg/mL (≈ 11.8 µM) |  |  | Cc1cccc(OCCCn2c3c(c4cc(F)ccc42)CNCC3)c1
19 | 4 µg/mL (≈ 10.5 µM) | 4 µg/mL (≈ 10.5 µM) | 16 µg/mL (≈ 42 µM) | 8 µg/mL (≈ 21 µM) | 8 µg/mL (≈ 21 µM) | 4 µg/mL (≈ 10.5 µM) | 4 µg/mL (≈ 10.5 µM) |  |  | CC(C)(C)c1ccc(OCCCn2c3c(c4cc(F)ccc42)CNCC3)cc1
20 | 8 µg/mL (≈ 19.8 µM) | 4 µg/mL (≈ 9.92 µM) | 4 µg/mL (≈ 9.92 µM) | 4 µg/mL (≈ 9.92 µM) | 4 µg/mL (≈ 9.92 µM) | 16 µg/mL (≈ 39.7 µM) | 4 µg/mL (≈ 9.92 µM) |  |  | Fc1ccc(OCCCn2c3c(c4cc(Br)ccc42)CNCC3)cc1
